This is an account of results in a melting point compilation (Tetko et al.; mined from patent text by program, amines drawn as free bases though some values may be those of a salt).

Turning to `CC(C)c1cccc(C(C)C)c1NC(=O)NCC1(c2cc(C(F)(F)F)cc(C(F)(F)F)c2)CCCC1`, the melting point lay in the range of 165 to 168 °C. As for `CS(=O)(=O)c1ccc(/C=C/c2cc(/C=C/c3ccc4cc[nH]c4c3)n[nH]2)cc1`, the figure is 260 to 268 °C. As for `COc1nc(C)cnc1N(C(=O)OCC(C)C)S(=O)(=O)c1cccnc1-c1ccc(C)cc1`, the figure is 143 to 145 °C; as for `CNc1cccc(-c2ccc3c(C(N)=O)nn(-c4ccc(S(N)(=O)=O)cc4)c3c2)c1`, 159 to 160 °C. As for `CCSCc1cc(O)nc(N(C)C)n1`, the figure is 119 to 121 °C; as for `COc1ccc2c(C=O)c(OCc3ccccc3)ccc2c1`, 115 to 117 °C; as for `CN(C)CCCC#Cc1cnc(N)nc1`, 126 to 127 °C. In the case of `CC(C)(C)COc1ccc(-n2cc(C(=O)O)cn2)cc1C#N`, the melting point lay in the range of 199 to 200 °C. Under `Brc1ccc(C2(c3ccc(Br)cc3)OCCO2)cc1` stands 103 to 104 °C; under `CC(COS(C)(=O)=O)N1c2ccccc2Sc2ccc(C#N)cc21` (racemic), 124 °C; under `CCCCCN(C)C12CN3CN(CN(C3)C1)C2`, 30 to 31 °C. Under `O=C(O)c1cccc2[nH]nnc12` stands 250 to 252 °C; under `CCOC(=O)c1ccc(/C=C(\COCc2ccc(OC)cc2)Cn2ccnc2)c(OC)c1`, 74 to 74.5 °C; under `CC(Sc1nc(N)cc(Cl)n1)c1cc2ccoc2cn1` (stereo unspecified), 187 to 188 °C. `Cc1c(C)c2c(c(C)c1O)CC[C@@](C)(CCCl)O2` yielded a melting point of 111 °C. Under `CC(C(=O)O)c1cccc(C2(c3ccccc3)OCCO2)c1` (stereo unspecified) stands 91 to 94 °C; under `CCOC(=O)c1nnc(C(=O)OCC)nn1`, 85 to 90 °C; under `CCC(=O)NCCSC(=O)CC`, 48 to 49 °C. Under `O=C(c1cc([N+](=O)[O-])cc(C(F)(F)F)c1)N1CCC1` stands 91 °C; under `COC(=O)C[C@@H](SCc1ccccc1)C(=O)O`, 91 to 92 °C; under `CC#CCOc1ccc(S(=O)(=O)NC2(C(=O)NO)CCCC2)cc1`, 66 to 68 °C. As for `CC(C)(C)NCc1ccc(COc2cccc3c2CN(C2CCC(=O)NC2=O)C3=O)cc1` (stereo unspecified), the figure is 194 to 196 °C; as for `CSCC(C)(C)NC(=O)c1c(I)cccc1[N+](=O)[O-]`, 114 to 115 °C. For the compound `CC1(C)Oc2ccc(S(=O)(=O)C(F)(F)F)cc2[C@@H](N2Cc3c(F)cccc3C2=O)[C@@H]1O` (relative stereo), the melting point is 259 to 261 °C. As for `O=C1CC(c2ccc(C3CCCCCC3)cc2)C(=O)O1` (stereo unspecified), the figure is 102 to 104 °C; as for `CCCCc1cc2c(=O)n3cc(C(=O)OC)ccc3nc2s1`, 137 to 138 °C; as for `COc1ccc(N2CCOCC2)c2sc(NC(=O)C[C@H]3CC[C@@H](O)CC3)nc12`, 212 to 216 °C. Consider `CCCc1c(N)c(C(C)=O)cc(C(C)=O)c1O`, for which the melting point lay within 138 to 139 °C. Under `CN1COCNC1=N[N+](=O)[O-]` stands 137 to 139 °C. As for `O=C1CNC(c2ccc(Cl)cc2)=NN1CC(F)(F)F`, the figure is 178 to 180 °C. Take `CNCc1cccc(COc2nc(Cl)cnc2NS(=O)(=O)c2cccc(Cl)c2Cl)c1`: the melting point was 167 to 168 °C. Under `CCOC(=O)C(=O)Nc1c(C)oc2ccccc2c1=O` stands 100 °C; under `CCCc1ccccc1OCCCOc1ccc2c(=O)cc(-c3nnn[nH]3)oc2c1`, 191 to 193 °C; under `CCC(=CC(CSc1nnc(C)s1)=NO)C(C)[N+](=O)[O-]` (stereo unspecified), 75 to 76 °C. As for `O=C(O)C=Cc1cn(-c2ccccc2)nc1-c1ccc(Cl)cc1`, the figure is 227 to 228 °C. As for `O=Cc1cc2cc3c(cc2nc1I)OCCO3`, the figure is 155 to 157 °C. Regarding `CCCOc1nc2sc(Cl)cc2c(=O)n1CCC`, the melting point is 62 to 65 °C. As for `COc1cc(NC(=O)C2C(=O)N(C)C(=O)N(C)C2=O)ccc1Oc1nnc(C(C)(C)C)s1`, the figure is 178 to 179 °C; as for `CC1=CC2(C)CC3CCCC(C)(C2=O)C13` (stereo unspecified), 46 to 47 °C; as for `CCCOc1ccc2[nH]c(C(=O)O)cc2c1`, 155 °C.

`CCCCCCOc1ccc(CCCCCCCCC(=O)NO)cc1` yielded a melting point of 94 to 96 °C.

In turn, `COC(=O)c1ccc(C=NNc2cc(C(C)(C)C)cc(C(C)(C)C)c2)cc1` had a melting point of 215 to 220 °C. As for `CCOC(=O)C(=O)c1cc(Cl)cc2cccnc12`, the figure is 107 to 110 °C; as for `COc1cc2c(cc1O)CCN(Cc1ccccc1OC)C2`, 128 to 129 °C. In turn, `CNC1CCN(c2cc3c(cc2F)c(=O)c(C(=O)O)c2n3C(C)S2)C1` (stereo unspecified) had a melting point of 213 to 216 °C. The compound `CCOCc1nc(C(C)(C)O)c(C(=O)OCOC(=O)C(C)(C)C)n1Cc1ccc(-c2ccccc2-c2nnn[nH]2)cc1` showed a melting point of 56 to 61 °C. Under `CCOC(=O)CNC(=O)c1ccc(O)cc1` stands 205 to 209 °C; under `CS(=O)(=O)c1ccc(-c2nc3cc(C4=CCN(S(=O)(=O)CCCO)CC4)ccc3o2)c(F)c1`, 184 to 186 °C. Under `COc1cc2c(cc1OC)[C@@H]1CN(C)CC[C@@H]1N=C2c1ccc(Cl)c(Cl)c1` (relative stereo) stands 183 to 184 °C; under `CCn1c(=O)c(-c2cc(OC)cc(OC)c2)cc2cnc(S(C)=O)nc21` (stereo unspecified), 114 to 116 °C.

`O=c1[nH]c2ccccc2cc1CN1CC=C(CCc2ccccc2)CC1` registered a melting point of 177 to 179 °C. Under `CNS(=O)(=O)c1cc(C(=O)NNC(=O)c2occ(-c3ccccc3)c2-c2ccccc2)ccc1O` stands 119 to 120 °C; under `CC(=O)Oc1ccccc1C1CCC(=O)CC1`, 86 to 87 °C; under `COC(=O)c1[nH]c(C)c(C)c1OCC1CO1` (stereo unspecified), 85 to 87 °C. Under `CCOC(=O)C(C)(C)Oc1cccc2c1C[C@@H](OC)[C@H](O)C2` (relative stereo) stands 153 to 155 °C.

`O=C(c1ccccc1CBr)c1ccc(F)cc1CBr` yielded a melting point of 98 to 99 °C.

Turning to `O=C(O)c1ccccc1OCCCCCOc1ccccc1C(=O)O`, the melting point fell in the range of 105 to 106 °C. Under `BrCCOc1cccc2c1SCCC2` stands 62 °C; under `O=C(c1ccoc1)c1cccc(-c2c(O)c3ccc(Cl)cc3[nH]c2=O)c1`, 284 to 286 °C; under `Cc1ccc(C(=O)O)c([N+](=O)[O-])c1`, 156 to 157 °C. As for `CCCCn1c(=O)c2[nH]c(Cl)nc2n(CCCC)c1=O`, the figure is 152 °C; as for `Cc1cc(CCC(=O)OC(C)(C)C)cc(-c2nc(=O)c3ccc(Cl)cc3s2)n1`, 186 to 188 °C; as for `CCN1CCCOc2ccc(Nc3ncc(Cl)c(Nc4ccsc4C(=O)NC)n3)cc21`, 153 to 155 °C. Under `CCCC1(CCC)C(=O)N(C(C)(C)C)CC(C)(C)N1OC(C)(C)C#N` stands 85 to 87 °C. `c1ccc(CC[C@H]2CNCCN2)nc1`: the melting point was 83 to 87 °C. As for `CCOC(=O)COc1ccc(Cn2c(-c3ccc(OCc4ccccc4)cc3)c(C)c3cc(OCc4ccccc4)ccc32)cc1`, the figure is 129 to 131 °C.

By melting point is commonly meant the temperature, or range, at which the solid turns liquid.
